Paper PMC12362615, “Design, Synthesis, and Cellular Characterization of a New Class of IPMK Kinase Inhibitors” (Journal of Medicinal Chemistry, 2025)

Legend:
Assay in all cases: Protein kinase profiling, Mobility Shift Assay (Carna Biosciences)
Format in all cases: biochemical
Conditions in all cases: read-out: % Inhibition at 1.0 μM 14
AurA = biological target: T1, AurA (Homo sapiens, UniProt O14965)
T1 construct: purchased Carna Biosciences
Procedure: (§1) Protein kinase profiling of compound 14 was executed by Carna Biosciences. Briefly, compound 14 was prepared by dissolving it in dimethyl sulfoxide (DMSO) and then further diluting it in DMSO to a concentration of […]. That stock solution was further diluted 25-fold with kinase assay buffer (20 mM HEPES, 0.01% Triton X-100, 2 mM DTT, pH 7.5) to make the final 1 μM compound 14 solution. Reference compounds for the assay controls were prepared similarly. The off-chip Mobility Shift Assay (MSA) was prepared with 5 μL of 4× compound solution, 5 μL of 4× substrate/ATP/metal solution, and 10 μL of 2× kinase solution, prepared with assay buffer (20 mM HEPES, 0.01% Triton X-100, 2 mM DTT, pH 7.5). The components were mixed and incubated in a polypropylene 384-well microplate for 1 h or 5 h at room temperature, depending on the kinase being tested. 60 μL of termination buffer (QuickScout Screening Assist MSA; Carna Biosciences) was added to the well to stop the reactions, and the mixture was applied to a LabChip3000 system (Caliper Life Sciences. The product and substrate peptide peaks were separated and quantitated. The kinase reactions were evaluated by the product ratio, calculated from the peak heights of the product (P) and substrate (S) peptides (P/(P + S)). Product ratio values for the control reaction were set as 0% inhibition, and the readout value of the background (no kinase added) was set as 100% inhibition. The percent inhibition of each test solution was then calculated as reported in Figure A. The phylogenetic tree was generated using KinMap at https://bmcbioinformatics.biomedcentral.com/articles/10.1186/s12859-016-1433-7.

JAK3 = biological target: T2, JAK3 (Homo sapiens, UniProt P52333)
T2 construct: purchased Carna Biosciences
Procedure: as §1

SYK = biological target: T3, SYK (Homo sapiens, UniProt P43405)
T3 construct: purchased Carna Biosciences
Procedure: as §1

IGF1R = biological target: T4, IGF1R (Homo sapiens, UniProt P08069)
T4 construct: purchased Carna Biosciences
Procedure: as §1

FGFR1 = biological target: T5, FGFR1 (Homo sapiens, UniProt P11362)
T5 construct: purchased Carna Biosciences
Procedure: as §1

MER = biological target: T6, MER (Homo sapiens, UniProt Q12866)
T6 construct: purchased Carna Biosciences
Procedure: as §1

EGFR = biological target: T7, EGFR (Homo sapiens, UniProt P00533)
T7 construct: purchased Carna Biosciences
Procedure: as §1

Erk2 = biological target: T8, Erk2 (Homo sapiens, UniProt P28482)
T8 construct: purchased Carna Biosciences
Procedure: as §1

LCK = biological target: T9, LCK (Homo sapiens, UniProt P06239)
T9 construct: purchased Carna Biosciences
Procedure: as §1

ROCK1 = biological target: T10, ROCK1 (Homo sapiens, UniProt Q13464)
T10 construct: purchased Carna Biosciences
Procedure: as §1

CSK = biological target: T11, CSK (Homo sapiens, UniProt P41240)
T11 construct: purchased Carna Biosciences
Procedure: as §1

SRC = biological target: T12, SRC (Homo sapiens, UniProt P12931)
T12 construct: purchased Carna Biosciences
Procedure: as §1

CaMK4 = biological target: T13, CaMK4 (Homo sapiens, UniProt Q16566)
T13 construct: purchased Carna Biosciences
Procedure: as §1

ITK = biological target: T14, ITK (Homo sapiens, UniProt Q08881)
T14 construct: purchased Carna Biosciences
Procedure: as §1

AKT1 = biological target: T15, AKT1 (Homo sapiens, UniProt P31749)
T15 construct: purchased Carna Biosciences
Procedure: as §1

MST1 = biological target: T16, MST1 (Homo sapiens, UniProt Q13043)
T16 construct: purchased Carna Biosciences
Procedure: as §1

JNK2 = biological target: T17, JNK2 (Homo sapiens, UniProt P45984)
T17 construct: purchased Carna Biosciences
Procedure: as §1

CDK2 = biological target: T18, CDK2 (Homo sapiens, UniProt P24941)
T18 construct: purchased Carna Biosciences
Procedure: as §1

MET = biological target: T19, MET (Homo sapiens, UniProt P08581)
T19 construct: purchased Carna Biosciences
Procedure: as §1

PKCa = biological target: T20, PKCa (Homo sapiens, UniProt P17252)
T20 construct: purchased Carna Biosciences
Procedure: as §1

IKKb = biological target: T21, IKKb (Homo sapiens, UniProt O14920)
T21 construct: purchased Carna Biosciences
Procedure: as §1

IRAK4 = biological target: T22, IRAK4 (Homo sapiens, UniProt Q9NWZ3)
T22 construct: purchased Carna Biosciences
Procedure: as §1

p38a = biological target: T23, p38a (Homo sapiens, UniProt Q16539)
T23 construct: purchased Carna Biosciences
Procedure: as §1

KDR = biological target: T24, KDR (Homo sapiens, UniProt P35968)
T24 construct: purchased Carna Biosciences
Procedure: as §1

TRKA = biological target: T25, TRKA (Homo sapiens, UniProt P04629)
T25 construct: purchased Carna Biosciences
Procedure: as §1

ABL = biological target: T26, ABL (Homo sapiens, UniProt P00519)
T26 construct: purchased Carna Biosciences
Procedure: as §1

T13 sequence (Q16566 whole entry): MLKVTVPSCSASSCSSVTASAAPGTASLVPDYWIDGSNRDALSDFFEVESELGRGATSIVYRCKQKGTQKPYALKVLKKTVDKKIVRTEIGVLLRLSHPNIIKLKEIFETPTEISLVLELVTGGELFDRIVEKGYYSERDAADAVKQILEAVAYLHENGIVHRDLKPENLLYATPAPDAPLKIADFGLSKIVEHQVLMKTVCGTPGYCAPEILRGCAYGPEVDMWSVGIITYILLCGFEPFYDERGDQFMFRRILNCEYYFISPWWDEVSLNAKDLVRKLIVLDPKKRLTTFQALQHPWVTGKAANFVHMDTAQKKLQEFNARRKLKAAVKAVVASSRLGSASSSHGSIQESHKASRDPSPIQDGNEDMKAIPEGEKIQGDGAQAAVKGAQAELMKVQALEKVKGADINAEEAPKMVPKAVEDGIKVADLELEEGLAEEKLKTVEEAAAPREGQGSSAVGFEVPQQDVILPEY
T1 sequence (O14965 whole entry): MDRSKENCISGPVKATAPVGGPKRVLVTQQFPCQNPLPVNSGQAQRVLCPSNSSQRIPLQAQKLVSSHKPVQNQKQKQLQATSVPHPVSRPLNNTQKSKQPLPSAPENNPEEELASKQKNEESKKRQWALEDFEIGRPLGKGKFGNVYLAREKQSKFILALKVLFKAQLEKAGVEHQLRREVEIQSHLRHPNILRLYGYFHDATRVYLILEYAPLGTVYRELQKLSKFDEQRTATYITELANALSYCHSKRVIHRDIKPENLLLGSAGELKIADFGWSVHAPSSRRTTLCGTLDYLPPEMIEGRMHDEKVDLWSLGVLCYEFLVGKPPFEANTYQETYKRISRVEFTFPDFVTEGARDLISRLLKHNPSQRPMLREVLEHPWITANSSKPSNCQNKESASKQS
T14 sequence (Q08881 whole entry): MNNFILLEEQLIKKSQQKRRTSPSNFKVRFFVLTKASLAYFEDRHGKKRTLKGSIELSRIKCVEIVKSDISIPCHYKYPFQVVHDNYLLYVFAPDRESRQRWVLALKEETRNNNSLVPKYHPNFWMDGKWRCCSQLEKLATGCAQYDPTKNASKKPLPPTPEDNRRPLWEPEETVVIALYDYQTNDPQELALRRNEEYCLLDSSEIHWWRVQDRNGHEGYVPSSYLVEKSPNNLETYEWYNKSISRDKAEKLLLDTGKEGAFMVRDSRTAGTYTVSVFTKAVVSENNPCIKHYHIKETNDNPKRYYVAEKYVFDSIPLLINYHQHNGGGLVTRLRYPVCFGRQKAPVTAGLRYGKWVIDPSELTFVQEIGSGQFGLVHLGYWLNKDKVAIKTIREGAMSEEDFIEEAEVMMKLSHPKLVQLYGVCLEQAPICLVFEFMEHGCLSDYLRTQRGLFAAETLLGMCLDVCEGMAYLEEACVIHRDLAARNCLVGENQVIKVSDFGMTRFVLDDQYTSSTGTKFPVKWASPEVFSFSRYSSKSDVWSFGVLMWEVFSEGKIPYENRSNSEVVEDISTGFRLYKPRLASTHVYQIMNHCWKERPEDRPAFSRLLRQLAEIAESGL
T17 sequence (P45984 whole entry): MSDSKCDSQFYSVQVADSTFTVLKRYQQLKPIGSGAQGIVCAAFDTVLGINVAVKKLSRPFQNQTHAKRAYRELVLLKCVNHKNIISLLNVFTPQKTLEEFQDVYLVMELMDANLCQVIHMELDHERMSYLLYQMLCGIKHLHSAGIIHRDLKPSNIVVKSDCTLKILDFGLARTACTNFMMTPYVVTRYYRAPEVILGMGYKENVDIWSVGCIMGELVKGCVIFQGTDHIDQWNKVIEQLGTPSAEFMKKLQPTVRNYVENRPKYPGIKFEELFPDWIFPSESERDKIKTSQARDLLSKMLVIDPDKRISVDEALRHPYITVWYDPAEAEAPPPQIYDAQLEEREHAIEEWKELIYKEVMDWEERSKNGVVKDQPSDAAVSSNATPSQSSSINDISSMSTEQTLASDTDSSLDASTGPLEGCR
T25 sequence (P04629 33-796): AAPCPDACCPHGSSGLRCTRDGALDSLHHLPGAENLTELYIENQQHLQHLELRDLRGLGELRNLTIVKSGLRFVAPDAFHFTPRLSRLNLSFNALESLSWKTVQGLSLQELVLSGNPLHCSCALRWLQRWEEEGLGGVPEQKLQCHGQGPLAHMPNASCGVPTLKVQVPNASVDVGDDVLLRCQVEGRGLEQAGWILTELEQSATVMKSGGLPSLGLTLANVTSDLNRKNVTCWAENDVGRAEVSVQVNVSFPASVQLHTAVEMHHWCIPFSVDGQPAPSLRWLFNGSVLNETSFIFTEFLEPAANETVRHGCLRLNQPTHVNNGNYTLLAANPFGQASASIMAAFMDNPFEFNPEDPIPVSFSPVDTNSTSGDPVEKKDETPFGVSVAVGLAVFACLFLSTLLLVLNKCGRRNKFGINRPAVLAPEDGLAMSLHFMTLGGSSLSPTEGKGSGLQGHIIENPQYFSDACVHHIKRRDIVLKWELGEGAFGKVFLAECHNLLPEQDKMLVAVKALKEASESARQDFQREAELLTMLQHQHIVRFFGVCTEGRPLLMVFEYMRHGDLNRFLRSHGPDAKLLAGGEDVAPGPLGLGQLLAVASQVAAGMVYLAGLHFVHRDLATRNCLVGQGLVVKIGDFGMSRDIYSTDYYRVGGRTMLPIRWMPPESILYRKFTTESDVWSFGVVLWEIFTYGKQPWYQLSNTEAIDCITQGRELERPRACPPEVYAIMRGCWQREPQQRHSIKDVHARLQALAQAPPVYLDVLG
T7 sequence (P00533 25-1210): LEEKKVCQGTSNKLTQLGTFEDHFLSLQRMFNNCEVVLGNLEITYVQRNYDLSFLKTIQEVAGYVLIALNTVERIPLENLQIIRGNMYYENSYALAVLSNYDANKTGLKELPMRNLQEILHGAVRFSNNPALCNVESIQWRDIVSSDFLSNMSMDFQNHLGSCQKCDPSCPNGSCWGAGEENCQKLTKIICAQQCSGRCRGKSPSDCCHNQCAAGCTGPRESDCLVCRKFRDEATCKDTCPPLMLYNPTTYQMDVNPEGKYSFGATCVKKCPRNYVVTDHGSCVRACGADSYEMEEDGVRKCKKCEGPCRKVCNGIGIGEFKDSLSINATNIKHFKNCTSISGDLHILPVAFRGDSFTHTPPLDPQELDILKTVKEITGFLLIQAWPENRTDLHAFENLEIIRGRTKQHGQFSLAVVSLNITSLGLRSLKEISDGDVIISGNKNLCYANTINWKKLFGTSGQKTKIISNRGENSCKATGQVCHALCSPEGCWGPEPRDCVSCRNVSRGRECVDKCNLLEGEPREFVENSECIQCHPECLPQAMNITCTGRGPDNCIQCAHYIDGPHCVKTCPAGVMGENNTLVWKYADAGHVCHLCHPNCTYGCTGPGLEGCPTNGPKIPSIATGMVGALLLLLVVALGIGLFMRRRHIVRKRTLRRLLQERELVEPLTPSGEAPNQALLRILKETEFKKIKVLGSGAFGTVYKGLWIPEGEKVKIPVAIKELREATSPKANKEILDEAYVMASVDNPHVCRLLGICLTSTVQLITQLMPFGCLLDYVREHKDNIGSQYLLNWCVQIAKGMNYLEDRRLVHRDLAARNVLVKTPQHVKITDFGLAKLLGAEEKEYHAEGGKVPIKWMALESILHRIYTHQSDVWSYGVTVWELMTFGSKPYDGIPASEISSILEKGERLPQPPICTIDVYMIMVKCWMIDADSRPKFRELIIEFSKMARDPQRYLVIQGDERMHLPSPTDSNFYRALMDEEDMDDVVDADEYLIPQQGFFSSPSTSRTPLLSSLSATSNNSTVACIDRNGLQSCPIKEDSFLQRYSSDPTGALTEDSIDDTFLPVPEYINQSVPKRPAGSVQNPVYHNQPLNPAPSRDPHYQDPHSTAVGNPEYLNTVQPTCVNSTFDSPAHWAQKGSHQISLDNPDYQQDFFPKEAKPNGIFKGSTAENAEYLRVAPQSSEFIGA
T21 sequence (O14920 whole entry): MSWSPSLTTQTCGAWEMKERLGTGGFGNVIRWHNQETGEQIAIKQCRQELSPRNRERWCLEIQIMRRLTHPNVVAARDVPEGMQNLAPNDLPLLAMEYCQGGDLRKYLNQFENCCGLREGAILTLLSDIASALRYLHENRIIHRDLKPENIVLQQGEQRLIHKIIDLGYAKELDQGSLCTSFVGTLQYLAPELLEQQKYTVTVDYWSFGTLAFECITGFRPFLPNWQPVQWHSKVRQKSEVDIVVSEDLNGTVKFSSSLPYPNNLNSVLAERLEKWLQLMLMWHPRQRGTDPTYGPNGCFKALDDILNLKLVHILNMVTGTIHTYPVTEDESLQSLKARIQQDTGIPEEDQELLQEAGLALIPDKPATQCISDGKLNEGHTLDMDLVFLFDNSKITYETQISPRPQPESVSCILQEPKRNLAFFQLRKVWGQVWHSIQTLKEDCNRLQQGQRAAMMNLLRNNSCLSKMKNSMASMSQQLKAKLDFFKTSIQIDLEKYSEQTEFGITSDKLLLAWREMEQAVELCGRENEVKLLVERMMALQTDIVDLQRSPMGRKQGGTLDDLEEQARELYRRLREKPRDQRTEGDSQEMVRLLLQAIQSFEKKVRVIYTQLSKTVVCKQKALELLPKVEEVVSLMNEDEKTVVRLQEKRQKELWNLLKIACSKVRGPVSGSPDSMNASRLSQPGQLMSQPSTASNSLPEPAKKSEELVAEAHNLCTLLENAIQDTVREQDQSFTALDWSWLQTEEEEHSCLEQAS
T8 sequence (P28482 whole entry): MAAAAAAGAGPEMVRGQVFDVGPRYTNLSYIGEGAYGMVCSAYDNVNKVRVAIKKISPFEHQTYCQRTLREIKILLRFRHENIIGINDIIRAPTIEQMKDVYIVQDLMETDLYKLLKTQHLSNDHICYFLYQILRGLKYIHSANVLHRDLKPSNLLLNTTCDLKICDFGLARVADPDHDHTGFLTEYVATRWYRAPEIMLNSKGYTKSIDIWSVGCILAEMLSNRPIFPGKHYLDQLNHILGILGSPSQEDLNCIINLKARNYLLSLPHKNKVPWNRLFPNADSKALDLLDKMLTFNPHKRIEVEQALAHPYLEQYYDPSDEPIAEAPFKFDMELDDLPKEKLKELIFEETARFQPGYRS

inhibition at 1 µM (AurA): 24.7%
inhibition at 1 µM (JAK3): 72.8%
inhibition at 1 µM (SYK): -13%
inhibition at 1 µM (IGF1R): 1.7%
inhibition at 1 µM (FGFR1): 40.5%
inhibition at 1 µM (MER): 72%
inhibition at 1 µM (EGFR): 3.4%
inhibition at 1 µM (Erk2): -2.2%
inhibition at 1 µM (LCK): 32.7%
inhibition at 1 µM (ROCK1): 6.1%
inhibition at 1 µM (CSK): 5.5%
inhibition at 1 µM (SRC): 18.4%
inhibition at 1 µM (CaMK4): -4%
inhibition at 1 µM (ITK): 5.7%
inhibition at 1 µM (AKT1): 7.4%
inhibition at 1 µM (MST1): 51%
inhibition at 1 µM (JNK2): 7.7%
inhibition at 1 µM (CDK2): 1.6%
inhibition at 1 µM (MET): 34.7%
inhibition at 1 µM (PKCa): 59.6%
inhibition at 1 µM (IKKb): 0.4%
inhibition at 1 µM (IRAK4): 1.3%
inhibition at 1 µM (p38a): 2.6%
inhibition at 1 µM (KDR): ≥ 75%
inhibition at 1 µM (TRKA): 35.9%
inhibition at 1 µM (ABL): 27.5%
SMILES: c1cc(-c2onc3ccc(-c4nnn[nH]4)cc23)cc(C2CCN(C3CCC3)CC2)c1 [Compound 14, 3-(3-(1-Cyclobutylpiperidin-4-yl)phenyl)-5-(1H-tetrazol-5-yl)benzo[c]isoxazole]
